Data published in patent publication US4182895A, “1-Amino-lower-alkyl-3,4-diphenyl-1H-pyrazoles” (Sterling Drug Inc., priority 1978, dated 1980).

How the values were obtained:
[1] = system: tetrabenazine; assay: Anti-tetrabenazine (TB) test, anti-depressant activity: photocell activity counts after tetrabenazine; format: in vivo, Male Swiss-Webster mice; details: 4 h before tetrabenazine 50 mg./kg. i.p.
Procedure: The test procedure used to determine the anti-depressant activity of the compounds of the invention is described as follows: Male Swiss-Webster mice (Taconic Farms) weighing from 19-24 g. were divided into four groups of nine to ten mice per group. […] The fourth group received the vehicle only. Four hours following medication, all the control and the test animals were medicated with 50 mg./kg. (i.p.) of tetrabenazine and were placed in a photocell activity cage [described by Harris et al., Psychon. Sci., 4, 267 (1966)] equipped with a digital counter to record the number of times that a light beam impinging on a photocell is interrupted during the test period. Beginning thirty minutes after tetrabenazine medication, the photocell units were activated and the photocell counts recorded over a fifty minute period.

[2] = system: acetylcholine-induced abdominal constriction; assay: Acetylcholine-induced abdominal constriction test (Ach), analgesic activity; format: in vivo, mice; details: for ED50: Mus musculus
Source text: (§1) The test procedures used to determine the analgesic activities of the compounds of the invention have been described in detail in the prior art and are as follows: The acetylcholine-induced abdominal constriction test, which is a primary analgesic screening test to measure the ability of a test agent to suppress acetylcholine-induced abdominal constriction in mice described by Collier et al., Brit. J. Pharmacol. Chemotherap. 32, 295 (1968) and the phenyl p-quinone-induced writhing test, also a primary analgesic screening test, designed to measure the ability of a test agent to prevent phenyl p-quinone-induced writhing in mice, described by Pearl and Harris, J. Pharmacol. Exptl. Therap. 154, 319-323 (1966).

[3] = Rosenthal, 1953; cited from earlier work
[4] = system: phenyl p-quinone-induced writhing; assay: Phenyl p-quinone-induced writhing test (PPQ), analgesic activity; format: in vivo, mice; details: Mus musculus, po
Source text: as §1

[5] = Buchi et al., 1955; cited from earlier work
[6] = Tested at 4, 16 and 64 mg./kg. (p.o.), activity = significant difference, 0.05 level or less

## CCN(CC)CCCn1cc(-c2ccccc2)c(-c2ccccc2)n1.Cl [Example 4, 1-[3-(N,N-diethylamino)propyl]-3,4-diphenyl-1H-pyrazole hydrochloride]
[1]; [6]
  TB (anti-tetrabenazine activity): Inac.
[2]; sc
  ED50: 2.2 mg/kg

## Cl.Cl.NCCCn1cc(-c2ccccc2)c(-c2ccccc2)n1 [Example 1A, 1-(3-aminopropyl)-3,4-diphenyl-1H-pyrazole dihydrochloride]
[1]; [6]
  TB (anti-tetrabenazine activity): Inac.
[2]; sc
  ED50: 11 mg/kg

## CN(C)CCCn1cc(-c2ccccc2)c(-c2ccccc2)n1.Cl.Cl [Example 2, 1-[3-(N,N-dimethylamino)propyl]-3,4-diphenyl-1H-pyrazole dihydrochloride]
[1]; at 2 mg./kg.
  TB (anti-tetrabenazine activity): Inac.
[1]; at 4, 8 and 16 mg./kg.
  TB (anti-tetrabenazine activity): Act.

## NCCn1nc(-c2ccccc2)cc1-c1ccccc1 [1-(2-aminoethyl)-3,5-diphenyl-1H-pyrazole]
[3]
  local anesthetic activity: having local anesthetic activity

## CNCCCn1cc(-c2ccccc2)c(-c2ccccc2)n1.Cl [Example 1B, 1-[3-(N-methylamino)propyl]-3,4-diphenyl-1H-pyrazole hydrochloride]
[1]; at 4 mg./kg.
  TB (anti-tetrabenazine activity): Inac.
[1]; at 16 and 64 mg./kg.
  TB (anti-tetrabenazine activity): Act.

## CCN(CC)CCn1cc(-c2ccccc2)c(-c2ccccc2)n1.Cl [Example 3, 1-[2-(N,N-diethylamino)ethyl]-3,4-diphenyl-1H-pyrazole hydrochloride]
[1]; [6]
  TB (anti-tetrabenazine activity): Inac.
[2]; 10 mg./kg. s.c.
  Ach % effect: 53%
[2]; 50 mg./kg. s.c.
  Ach % effect: 67%
[2]; 100 mg./kg. s.c.
  Ach % effect: 60%
[2]; po
  ED50: 29 mg/kg
[4]
  ED50: 90 mg/kg

## Cc1cn(CCN(C)C)nc1-c1ccccc1 [1-(2-dimethylaminoethyl)-3-phenyl-4-methyl-1H-pyrazole]
[5]
  analgesic activity: analgesic activity is asserted
